What is called Ki is the equilibrium dissociation constant of an inhibitor or competing ligand from its target.

Data on 1 compound can be found in patent US8741912B2, “Deazapurines useful as inhibitors of Janus kinases” (Vertex Pharmaceuticals Incorporated, priority 2006, dated 2014).

One test addresses T1, JAK3 (Homo sapiens, UniProt P52333).
T1 sequence (P52333 1-1124): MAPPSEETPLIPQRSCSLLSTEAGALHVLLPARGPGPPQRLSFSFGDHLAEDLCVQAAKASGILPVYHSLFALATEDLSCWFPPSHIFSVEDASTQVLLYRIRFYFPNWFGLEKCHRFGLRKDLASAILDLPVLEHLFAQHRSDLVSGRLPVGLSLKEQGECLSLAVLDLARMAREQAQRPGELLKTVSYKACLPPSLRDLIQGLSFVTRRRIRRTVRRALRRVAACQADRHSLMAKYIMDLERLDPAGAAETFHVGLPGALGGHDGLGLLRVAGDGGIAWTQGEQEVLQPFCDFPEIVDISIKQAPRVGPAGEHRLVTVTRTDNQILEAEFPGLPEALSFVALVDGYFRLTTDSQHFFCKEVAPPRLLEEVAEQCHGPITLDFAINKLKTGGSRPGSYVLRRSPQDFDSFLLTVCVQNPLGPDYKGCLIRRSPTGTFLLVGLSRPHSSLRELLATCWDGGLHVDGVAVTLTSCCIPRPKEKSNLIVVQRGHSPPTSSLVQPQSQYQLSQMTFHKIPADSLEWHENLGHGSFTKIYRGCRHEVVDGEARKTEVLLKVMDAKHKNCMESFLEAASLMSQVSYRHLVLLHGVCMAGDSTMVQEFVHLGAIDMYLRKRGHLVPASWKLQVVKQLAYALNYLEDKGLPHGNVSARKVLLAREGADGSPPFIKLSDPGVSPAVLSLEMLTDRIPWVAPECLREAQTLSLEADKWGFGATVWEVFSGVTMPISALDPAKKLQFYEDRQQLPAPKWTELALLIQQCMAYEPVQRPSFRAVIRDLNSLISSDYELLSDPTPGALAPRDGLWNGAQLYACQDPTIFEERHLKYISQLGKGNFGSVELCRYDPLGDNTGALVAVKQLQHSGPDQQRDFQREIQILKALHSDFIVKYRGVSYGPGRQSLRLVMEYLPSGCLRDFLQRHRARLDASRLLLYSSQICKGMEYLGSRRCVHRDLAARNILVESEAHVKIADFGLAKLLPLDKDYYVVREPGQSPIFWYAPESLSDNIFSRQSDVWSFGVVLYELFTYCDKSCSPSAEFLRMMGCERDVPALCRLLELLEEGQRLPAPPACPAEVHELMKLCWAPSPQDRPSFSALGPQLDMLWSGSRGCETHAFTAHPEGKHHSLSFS
As to the kind of experiment: JAK3 inhibition assay (33P incorporation into poly(Glu)4Tyr). The class given is biochemical. As to conditions: 1 nM JAK3; 1 μM poly(Glu)4Tyr, 5 μM ATP, 25° C.; read-out: JAK3 enzyme inhibition (Ki). The procedure:
(§1) Compounds were screened for their ability to inhibit JAK3 using the assay shown below. Reactions were carried out in a kinase buffer containing 100 mM HEPES (pH 7.4), 1 mM DTT, 10 mM MgCl2, 25 mM NaCl, and 0.01% BSA. Substrate concentrations in the assay were 5 μM ATP (200 uCi/μmole ATP) and 1 μM poly(Glu)4Tyr. Reactions were carried out at 25° C. and 1 nM JAK3.
(§2) To each well of a 96 well polycarbonate plate was added 1.5 μl of a candidate JAK3 inhibitor along with 50 μl of kinase buffer containing 2 μM poly(Glu)4Tyr and 10 μM ATP. This was then mixed and 50 μl of kinase buffer containing 2 nM JAK3 enzyme was added to start the reaction. After 20 minutes at room temperature (25° C.), the reaction was stopped with 50 μl of 20% trichloroacetic acid (TCA) that also contained 0.4 mM ATP. The entire contents of each well were then transferred to a 96 well glass fiber filter plate using a TomTek Cell Harvester. After washing, 60 μl of scintillation fluid was added and ^33P incorporation detected on a Perkin Elmer TopCount.

Another test concerns the target JAK-2 enzyme (Homo sapiens, UniProt O60674). Briefly: JAK2 inhibition assay (33P incorporation into poly(Glu)4Tyr). The settings on record: 15 μM poly(Glu)4Tyr, 12 μM ATP. The test is classed as biochemical. As for the experimental part: as §1, §2
The assays were as described above in Example 36 except that JAK-2 enzyme was used, the final poly(Glu)4Tyr concentration was 15 μM, and final ATP concentration was 12 μM.

Molecules are shown by their SMILES. A value given as a limit tells only on which side of the number the result lay.

Chain of JAK-2 enzyme (O60674 whole entry): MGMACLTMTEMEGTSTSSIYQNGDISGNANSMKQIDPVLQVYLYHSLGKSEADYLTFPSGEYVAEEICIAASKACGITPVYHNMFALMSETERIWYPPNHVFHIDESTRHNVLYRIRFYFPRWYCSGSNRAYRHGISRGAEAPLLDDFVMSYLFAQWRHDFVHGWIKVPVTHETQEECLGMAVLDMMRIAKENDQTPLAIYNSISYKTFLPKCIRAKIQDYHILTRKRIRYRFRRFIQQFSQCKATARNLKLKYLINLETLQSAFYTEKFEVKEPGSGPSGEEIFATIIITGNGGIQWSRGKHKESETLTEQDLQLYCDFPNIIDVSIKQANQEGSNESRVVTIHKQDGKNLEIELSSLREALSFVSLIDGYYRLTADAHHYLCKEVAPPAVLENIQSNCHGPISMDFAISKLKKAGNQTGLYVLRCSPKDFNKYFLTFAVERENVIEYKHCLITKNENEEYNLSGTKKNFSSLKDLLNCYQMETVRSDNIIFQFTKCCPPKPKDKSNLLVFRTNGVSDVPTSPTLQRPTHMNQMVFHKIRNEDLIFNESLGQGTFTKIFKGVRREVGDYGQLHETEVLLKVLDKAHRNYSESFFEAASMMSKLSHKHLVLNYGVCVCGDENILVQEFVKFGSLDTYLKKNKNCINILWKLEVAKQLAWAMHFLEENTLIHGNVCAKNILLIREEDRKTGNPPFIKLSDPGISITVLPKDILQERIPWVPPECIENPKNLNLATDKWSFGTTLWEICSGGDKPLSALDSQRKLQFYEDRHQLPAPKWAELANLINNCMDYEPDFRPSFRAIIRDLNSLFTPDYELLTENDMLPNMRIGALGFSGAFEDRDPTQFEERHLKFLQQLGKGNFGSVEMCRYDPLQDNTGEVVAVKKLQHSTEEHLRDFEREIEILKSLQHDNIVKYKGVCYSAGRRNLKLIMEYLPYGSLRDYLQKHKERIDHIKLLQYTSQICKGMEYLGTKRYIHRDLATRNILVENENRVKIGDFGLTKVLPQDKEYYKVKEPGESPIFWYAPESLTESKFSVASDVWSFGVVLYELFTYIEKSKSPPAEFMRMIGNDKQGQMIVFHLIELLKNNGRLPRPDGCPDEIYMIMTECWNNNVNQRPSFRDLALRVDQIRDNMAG

Regarding `CN(CC#N)C(=O)c1cc(-c2ncnc3[nH]ccc23)cn1C` [Compound 236], the Ki at JAK3 is 100 to 500 nM; on JAK-2 enzyme, < 100 nM.
